In patent publication US10376550B2, “Nutraceutical composition and methods of use” (Dacy Tech Party Ltd., priority 2007, dated 2019):

Columns and labels:
[1] = system: prostaglandin PGE2 levels; assay: PGE2 levels in IL-1β stimulated NHAC cells; format: cell-based; settings: IL-1β 10 ng/ml, 24 hours, fractions ≤64 μg/ml
Experimental: (§1) To study the anti-inflammatory activities, assays Fr 1, Fr i, Fr V and Fr Vi were selected and tested at a concentration of ≤64 μg/ml. The assays carried out to measure the 1) Nitric Oxide (NO) levels, 2) prostaglandin PGE2 levels, 3) prostaglandin PGF2α levels. NHAC cells at passage 3, were stimulated first with proinflammatory cytokine IL-1β at a predetermined concentration 10 ng/ml overnight, NHAC Cells were then treated with fractions in the presence of IL-1β 10 ng/ml for 24 hours and cell culture supernatant was collected to measure NO, PGE2 and PGF2α levels. Griess Reagent Kit for Nitrite Determination (Molecular Probes, Invitrogen) was used as per kit instructions. For estimation of PGs, High Sensitivity PGE2 & PGF2α EIA kits (Assay Designs Inc.) were used.

[2] = system: prostaglandin PGF2α levels; assay: PGF2α levels in IL-1β stimulated NHAC cells; format: cell-based; settings: IL-1β 10 ng/ml, 24 hours, fractions 64-32 μg/ml
Experimental: as §1

Compound: COc1ccc2c(c1)c(CC(=O)O)c(C)n2C(=O)c1ccc(Cl)cc1 [Indomethacin]
- IL-1β induced PGE2 levels [1]: significantly reduced
- IL-1β induced PGF2α levels [2]: significantly reduced
